# What was measured:
# [1] = Plasma absorption time course of lactulose and galactose after oral administration (findings stated in the summary); assay type: in vivo
# [2] = test system: gastric ulcers; conditions: foals, ulcers associated with intravenous administration of high-dose NSAIDs; cited from earlier work
# [3] = biological target: H-2 receptors on the parietal cell (Homo sapiens, UniProt P25021); conditions: human subjects, administered intravenously; cited from earlier work
# Chain of H-2 receptors on the parietal cell (P25021 whole entry): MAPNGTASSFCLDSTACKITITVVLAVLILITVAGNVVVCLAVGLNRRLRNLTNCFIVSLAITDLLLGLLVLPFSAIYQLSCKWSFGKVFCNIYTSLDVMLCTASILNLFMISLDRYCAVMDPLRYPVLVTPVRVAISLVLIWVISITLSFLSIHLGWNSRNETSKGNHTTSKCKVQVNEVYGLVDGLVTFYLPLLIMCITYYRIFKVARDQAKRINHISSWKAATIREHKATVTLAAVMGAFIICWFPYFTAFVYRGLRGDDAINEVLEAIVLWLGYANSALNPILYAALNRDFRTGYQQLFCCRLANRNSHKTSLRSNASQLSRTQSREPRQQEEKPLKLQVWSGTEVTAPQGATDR
compound,measurement,setting,value
O=C[C@H](O)[C@@H](O)[C@@H](O)[C@H](O)CO [galactose],Time at which galactose absorption peaks,[1]; after oral administration,≤ 15 min
same,Time galactose remains present in plasma at measurable micromolar concentrations,"[1]; after oral administration, majority of individuals tested",approximately 60 minutes
same,Time to peak plasma concentrations of galactose,[1]; galactose concentrations below 2% in the oral solution,≤ 5 min
"OC[C@H]1O[C@@H](O[C@@H]2[C@@H](CO)OC(O)(CO)[C@H]2O)[C@H](O)[C@@H](O)[C@H]1O (mixture of isomers) [Lactulose, lactulose]",Time after which the rate of lactulose absorption slows,[1]; after oral administration,approximately 60 minutes
same,Period over which lactulose absorption occurs,"[1]; health and disease states, after oral administration",up to 3 hours
sucralfate,Effect on gastric ulcers,[2],protective effect
NC(N)=Nc1nc(CSCCC(N)=NS(N)(=O)=O)cs1 [famotidine],Time to pharmacological tolerance,[3],12-72 hours
